For series [1], the system named is Caco-2. In words: Membrane permeability test of cyclic peptides (Caco-2, modified/improved method of WO 2018/124162). Background: Passage across Caco-2 layers is used to estimate intestinal permeability.
Experiment in series [2]: as above
The conditions noted are these: human, Caco-2, Caco-2 (cm/sec).

[3] abbreviates: membrane permeability of cyclic peptides, Caco-2.

The values below come from patent US20230096766A1, “AMINO ACID HAVING FUNCTIONAL GROUP CAPABLE OF INTERMOLECULAR HYDROGEN BONDING, PEPTIDE COMPOUND CONTAINING SAME AND METHOD FOR PRODUCTION THEREOF” (Chugai Seiyaku Kabushiki Kaisha, priority 2018, published 2023).

Where two headings read alike, the source gives them in different places. Where a SMILES comes first, the peptide text is derived from it. Bridges are numbered along the chain shown (N, C = ends). [ ]: non-standard residue; d: D form. The star is where a group is joined. NMeHph(3-OMe-4-CONHMe) = CNC(=O)c1ccc(CC[C@H](NC)C(=O)O)cc1OC; NMeAbu(3,3-F2-piperidino) = CN[C@@H](CCN1CCCC(F)(F)C1)C(=O)O; NMeF = CN[C@@H](Cc1ccccc1)C(=O)O; NMeD = CN[C@@H](CC(=O)O)C(=O)O; NMeL = CN[C@@H](CC(C)C)C(=O)O; NMeV = CN[C@H](C(=O)O)C(C)C; NMeA = CN[C@@H](C)C(=O)O; Piperidide = C1CCN(*)CC1; Bn = c1ccc(C*)cc1; Sar = CNCC(=O)O; tBu = CC(C)(C)*

Consider `CC(C)C[C@@H]1NC(=O)[C@H](Cc2ccccc2)N(C)C(=O)[C@@H](C)NC(=O)C[C@@H](C(=O)N2CCCCC2)N(C)C(=O)[C@H](Cc2ccccc2)N(C)C(=O)[C@H](Cc2ccccc2)N(C)C(=O)[C@H](COC(C)(C)C)NC(=O)[C@H](CC(C)C)N(C)C(=O)CN(C)C(=O)[C@H]([C@@H](C)O)NC(=O)[C@H](CC(C)C)N(C)C1=O` [pd224] ([dA][NMeF]L[NMeL]T[Sar][NMeL]S(tBu)[NMeF][NMeF][NMeD]-Piperidide; lactam N-11), for which, where the note is “Caco-2, Caco-2 (cm/sec)”, the Papp – broadly, the rate of passage across a membrane or cell layer, normalised by area and donor concentration – is 1 ×10⁻⁶ cm/s. In the case of `CC(C)C[C@@H]1NC(=O)[C@H](C)N(C)C(=O)C[C@@H](C(=O)N2CCCCC2)NC(=O)[C@H](CC(C)C)N(C)C(=O)CN(C)C(=O)[C@H]([C@@H](C)O)NC(=O)[C@H](C)N(C)C(=O)[C@H](Cc2ccccc2)N(C)C(=O)[C@H](COCc2ccccc2)NC(=O)[C@H](Cc2ccccc2)N(C)C(=O)[C@H](CC(C)C)N(C)C1=O` [pd179] ([NMeA]L[NMeL][NMeF]S(Bn)[NMeF][NMeA]T[Sar][NMeL]D-Piperidide; lactam N-11), the “Caco-2” value in series [1] (Table 36, Papp, sequences having Papp ≥ 1.0 × 10^−6 at ARC = 3) worked out at 2e-06 cm/s. This compound registered a Papp in series [2] (Table 35, Papp, sequences having Papp ≥ 1.0 × 10^−6 at ARC = 3) of 2 ×10⁻⁶ cm/s. In the case of `CC(C)C[C@@H]1NC(=O)[C@H](Cc2ccccc2)N(C)C(=O)[C@@H](C(C)C)NC(=O)C[C@@H](C(=O)N2CCCCC2)NC(=O)[C@H](C(C)C)N(C)C(=O)[C@H](Cc2ccccc2)N(C)C(=O)[C@H](COC(C)(C)C)NC(=O)[C@H](CCN2CCCC(F)(F)C2)N(C)C(=O)CN(C)C(=O)[C@H]([C@@H](C)O)NC(=O)[C@H](CC(C)C)N(C)C1=O` [pd387] ([dV][NMeF]L[NMeL]T[Sar][NMeAbu(3,3-F2-piperidino)]S(tBu)[NMeF][NMeV]D-Piperidide; lactam N-11), where the note is “Caco-2, Caco-2”, the Papp came out at 3.5 ×10⁻⁶ cm/s. Take `CC(C)C[C@@H]1NC(=O)CN(C)C(=O)[C@H](Cc2ccccc2)N(C)C(=O)[C@@H](C)NC(=O)C[C@@H](C(=O)N2CCCCC2)NC(=O)[C@H](Cc2ccccc2)N(C)C(=O)[C@H](Cc2ccccc2)N(C)C(=O)[C@H](COC(C)(C)C)NC(=O)[C@H](CC(C)C)N(C)C(=O)[C@H](Cc2ccccc2)NC(=O)[C@H]([C@@H](C)O)NC1=O` [pd248] ([dA][NMeF][Sar]LTF[NMeL]S(tBu)[NMeF][NMeF]D-Piperidide; lactam N-11): the Papp (Caco-2, Caco-2 (cm/sec) Papp) amounted to 0.014 ×10⁻⁶ cm/s. On to `CNC(=O)c1ccc(CC[C@H]2C(=O)N[C@@H]([C@@H](C)O)C(=O)N(C)CC(=O)N(C)[C@@H](CC(C)C)C(=O)N[C@@H](CC(C)C)C(=O)N(C)[C@@H](Cc3ccccc3)C(=O)N(C)[C@@H](CC(C)C)C(=O)N[C@H](C(=O)N3CCCCC3)CC(=O)N[C@H](C(C)C)C(=O)N(C)[C@@H](CC(C)C)C(=O)N[C@@H](C(C)C)C(=O)N2C)cc1OC` [AP226] ([dV][NMeL]V[NMeHph(3-OMe-4-CONHMe)]T[Sar][NMeL]L[NMeF][NMeL]D-Piperidide; lactam N-11), for which the “Caco-2” value in series [1] (setting [3]) came out at 1e-06 cm/s. The Papp in series [2] (setting [3]) worked out at 0.57 ×10⁻⁶ cm/s. Regarding `CC[C@H](C)[C@@H]1NC(=O)[C@H](CC(C)C)N(C)C(=O)CN(C)C(=O)[C@H]([C@@H](C)O)NC(=O)[C@H](Cc2ccccc2)N(C)C(=O)[C@H](CC(C)C)NC(=O)[C@H](Cc2ccccc2)N(C)C(=O)[C@@H](CC(C)C)NC(=O)C[C@@H](C(=O)N2CCCCC2)NC(=O)[C@H](CC(C)C)N(C)C(=O)[C@H](Cc2ccccc2)N(C)C1=O` [pd225] ([dL][NMeF]L[NMeF]T[Sar][NMeL]I[NMeF][NMeL]D-Piperidide; lactam N-11), the Papp (Caco-2, Caco-2 (cm/sec)) came out at 1 ×10⁻⁶ cm/s.
